Experimental data as given in patent US20170066712A1, “NOVEL MOLECULES THAT SELECTIVELY INHIBIT HISTONE DEACETYLASE 6 RELATIVE TO HISTONE DEACETYLASE” (The Trustees of Columbia University in the City of New York, priority 2011, published 2017).

How the values were obtained:
LNCaP cells [1] = assay: Cell growth assay in LNCaP cells; type: cell-based, human; settings: FIG. 3
Procedure: FIG. 3. Cell growth assay data in LNCaP cells with compound 6.
(§1) Recombinant HDAC1 and HDAC6 are used to evaluate the selective inhibitory potency of each compound. Cell based assays: Normal cells (Human Foreskin Fibroblast cells), LNCaP (human prostate cancer cells), MCF-7 (human breast cancer cells, A549 (human adenocarcinoma of lung cells) and ARP-1 (human multiple myeloma cells) are used in these assays. Cells were cultured for up to 72 hr without and with the potential HDAC6-selective inhibitor. SAHA was used as a control. Cell number and cell viability were determined by enumeration. Proteins were extracted from cells and assayed for accumulation of acetylated tubulin and acetylated histones. All methods are described in Namdar et al., PNAS, 2010, 107:20003-8. In vivo animal studies: Potential HDAC6 inhibitor compounds are further assayed by administration to mice for up to 5 days with daily injections. Animals are sacrificed and tissues are analyzed for accumulation of acetylated tubulin and acetylated histones.

acetylated histone H3 = assay: Accumulation of acetylated histone H3 in LNCaP cells (blot); type: cell-based, human; settings: FIG. 2
Text: (§2) FIG. 2. Blot showing accumulation of acetylated alpha-tubulin and acetylated histone H3 in LNCaP cells cultured with compound 6. GADPH used as loading control.
as §1

LNCaP cells [2] = assay: Cell viability assay in LNCaP cells; type: cell-based
Procedure: FIG. 4. Cell viability assay data in LNCaP cells with compound 6.
as §1

HDAC6 = target: T1, HDAC6 (Homo sapiens, UniProt Q9UBN7); assay: Recombinant HDAC1 and HDAC6 selective inhibitory potency; type: biochemical
T1 sequence (Q9UBN7 1-1215): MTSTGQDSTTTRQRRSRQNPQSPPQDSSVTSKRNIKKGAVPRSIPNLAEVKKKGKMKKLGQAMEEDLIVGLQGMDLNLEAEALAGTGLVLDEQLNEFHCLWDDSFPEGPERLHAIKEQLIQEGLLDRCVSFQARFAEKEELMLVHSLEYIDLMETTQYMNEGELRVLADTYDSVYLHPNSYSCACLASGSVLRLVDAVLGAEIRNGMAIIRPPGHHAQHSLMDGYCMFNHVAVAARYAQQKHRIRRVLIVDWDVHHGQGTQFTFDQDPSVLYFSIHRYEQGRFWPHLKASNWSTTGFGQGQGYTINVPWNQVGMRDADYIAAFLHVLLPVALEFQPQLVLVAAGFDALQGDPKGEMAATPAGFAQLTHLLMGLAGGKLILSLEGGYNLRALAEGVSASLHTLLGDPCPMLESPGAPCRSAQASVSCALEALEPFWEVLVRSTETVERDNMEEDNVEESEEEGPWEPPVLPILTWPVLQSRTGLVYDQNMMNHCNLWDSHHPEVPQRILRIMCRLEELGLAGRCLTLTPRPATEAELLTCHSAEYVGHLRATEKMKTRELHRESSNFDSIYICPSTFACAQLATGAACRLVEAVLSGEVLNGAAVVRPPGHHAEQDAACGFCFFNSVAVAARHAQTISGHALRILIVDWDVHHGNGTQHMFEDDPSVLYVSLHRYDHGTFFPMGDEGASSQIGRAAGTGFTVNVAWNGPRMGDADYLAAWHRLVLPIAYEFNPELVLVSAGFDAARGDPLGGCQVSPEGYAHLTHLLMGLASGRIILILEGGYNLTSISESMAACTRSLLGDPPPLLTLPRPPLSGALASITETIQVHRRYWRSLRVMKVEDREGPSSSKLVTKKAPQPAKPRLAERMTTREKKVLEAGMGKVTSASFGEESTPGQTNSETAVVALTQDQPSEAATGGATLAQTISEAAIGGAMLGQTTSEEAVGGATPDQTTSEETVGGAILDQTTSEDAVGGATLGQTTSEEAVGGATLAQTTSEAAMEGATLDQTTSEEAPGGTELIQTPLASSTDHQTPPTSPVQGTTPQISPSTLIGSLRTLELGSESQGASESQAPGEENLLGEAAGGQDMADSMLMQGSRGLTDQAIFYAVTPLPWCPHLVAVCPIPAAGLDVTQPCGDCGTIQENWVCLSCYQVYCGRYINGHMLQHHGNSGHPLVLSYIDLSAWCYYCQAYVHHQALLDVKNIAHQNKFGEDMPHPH
Procedure: as §1

acetylated alpha-tubulin = assay: Accumulation of acetylated alpha-tubulin in LNCaP cells (blot); type: cell-based, human; settings: for identified as HDAC6-selective inhibitor: on the basis of accumulation of acetylated tubulin without accumulation of acetylated histones
Text: as §2, §1

known human HDACs = settings: background statement; cited from earlier work
microtubules = settings: Haggarty et al. (6); cited from earlier work
[3] = target: T2, C-terminal catalytic domain of HDAC6 (Homo sapiens, UniProt Q9UBN7); settings: Haggarty et al. (6); cited from earlier work
T2 sequence (Q9UBN7 1-1215): T1 sequence (Q9UBN7 1-1215)

cell motility = settings: Haggarty et al. (6); cited from earlier work

## O=C(NO)c1ccc(CC(=O)N(CCO)c2ccccc2)cc1 [Compound 6, N-hydroxy-4-(2-((2-hydroxyethyl)(phenyl)amino)-2-oxoethyl) benzamide]
LNCaP cells [1]
  cell number: inhibits cell number
Acetylated histone H3
  induction of H3 acetylation: without induction of H3 acetylation
LNCaP cells [2]; FIG. 4
  cell viability: does not decrease cell viability
LNCaP cells [2]; concentrations as high as 32 μM
  death of LNCaP cells: no detectable death of LNCaP cells
HDAC6
  HDAC inhibitor selectivity for HDAC6 relative to HDAC1: selective for HDAC6 relative to HDAC1
Acetylated alpha-tubulin; LNCaP cells, FIG. 2
  levels of tubulin acetylation: significant levels of tubulin acylation were present
Acetylated alpha-tubulin; in the absence of histone acetylation
  levels of tubulin acetylation reached in the absence of histone acetylation, compared with tubacin: greater than selective levels with tubacin
Acetylated alpha-tubulin
  identified as HDAC6-selective inhibitor: HDAC6-selective inhibitors

## O=C(NO)c1ccc(CC(=O)N(CCO)c2cccc3cccnc23)cc1 [Compound 14, N-hydroxy-4-(2-((2-hydroxyethyl)(quinolin-8-yl)amino)-2-oxoethyl) benzamide]
HDAC6
  HDAC inhibitor selectivity for HDAC6 relative to HDAC1: selective for HDAC6 relative to HDAC1
Acetylated alpha-tubulin
  identified as HDAC6-selective inhibitor: HDAC6-selective inhibitors

## O=C(/C=C/C(=O)Nc1ccc(CC(=O)N(CCO)c2ccccc2)cc1)NO [Compound 21]
HDAC6
  HDAC inhibitor selectivity for HDAC6 relative to HDAC1: selective for HDAC6 relative to HDAC1

## O=C(NO)Nc1ccc(CC(=O)N(CCO)c2ccccc2)cc1 [Compound 24]
HDAC6
  HDAC inhibitor selectivity for HDAC6 relative to HDAC1: selective for HDAC6 relative to HDAC1

## O=C(NO)C(=O)Nc1ccc(CC(=O)N(CCO)c2ccccc2)cc1 [Compound 26]
HDAC6
  HDAC inhibitor selectivity for HDAC6 relative to HDAC1: selective for HDAC6 relative to HDAC1

## O=C(NO)c1ccc(NCC(=O)N(CCO)c2ccccc2)cc1 [Compound 27]
HDAC6
  HDAC inhibitor selectivity for HDAC6 relative to HDAC1: selective for HDAC6 relative to HDAC1

## O=C(CN(CCO)c1ccccc1)Nc1ccc(C(=O)NO)cc1 [Compound 30]
HDAC6
  HDAC inhibitor selectivity for HDAC6 relative to HDAC1: selective for HDAC6 relative to HDAC1

## O=C(CC(=O)Nc1ccc(CC(=O)N(CCO)c2ccccc2)cc1)NO [Compound 31]
HDAC6
  HDAC inhibitor selectivity for HDAC6 relative to HDAC1: selective for HDAC6 relative to HDAC1

## O=C(CN(CCO)c1ccccc1)Oc1ccc(C(=O)NO)cc1 [Compound 32]
HDAC6
  HDAC inhibitor selectivity for HDAC6 relative to HDAC1: selective for HDAC6 relative to HDAC1

## O=C(NO)c1ccc(C(=O)N(CCO)c2ccccc2)cc1 [Compound 33]
HDAC6
  HDAC inhibitor selectivity for HDAC6 relative to HDAC1: selective for HDAC6 relative to HDAC1

## O=C(Cc1ccc(C(=O)N(CCO)c2ccccc2)cc1)NO [Compound 34]
HDAC6
  HDAC inhibitor selectivity for HDAC6 relative to HDAC1: selective for HDAC6 relative to HDAC1

## O=C(CCc1ccc(C(=O)N(CCO)c2ccccc2)cc1)NO [Compound 35]
HDAC6
  HDAC inhibitor selectivity for HDAC6 relative to HDAC1: selective for HDAC6 relative to HDAC1

## O=C(CCc1ccc(CC(=O)N(CCO)c2ccccc2)cc1)NO [Compound 36]
HDAC6
  HDAC inhibitor selectivity for HDAC6 relative to HDAC1: selective for HDAC6 relative to HDAC1

## O=C(NO)c1cccc2c1ccn2CC(=O)N(CCO)c1ccccc1 [Compound 37]
HDAC6
  HDAC inhibitor selectivity for HDAC6 relative to HDAC1: selective for HDAC6 relative to HDAC1

## O=C(NO)c1cccc2c1ncn2CC(=O)N(CCO)c1ccccc1 [Compound 43]
HDAC6
  HDAC inhibitor selectivity for HDAC6 relative to HDAC1: selective for HDAC6 relative to HDAC1

## O=C(NO)c1cccc(CC(=O)N(CCO)c2ccccc2)c1 [Compound 79, N-hydroxy-3-(2-((2-hydroxyethyl)(phenyl)amino)-2-oxoethyl) benzamide]
HDAC6
  HDAC inhibitor selectivity for HDAC6 relative to HDAC1: selective for HDAC6 relative to HDAC1

## O=C(CCCCCCC(=O)Nc1ccccc1)NO [SAHA, suberoylanilide hydroxamic acid, reference compound]
LNCaP cells [2]; SAHA control
  death of LNCaP cells: kills LNCaP cells
Known human HDACs
  selectivity of inhibitory activity among known human HDACs: not selective among the known human HDACs

## O=C(CCCCCCC(=O)Nc1ccc([C@H]2O[C@@H](CSc3nc(-c4ccccc4)c(-c4ccccc4)o3)C[C@@H](c3ccc(CO)cc3)O2)cc1)NO [tubacin]
microtubules
  stability of microtubules: did not affect the stability of microtubules
[3]
  inhibition of C-terminal catalytic domain of HDAC6 (α-tubulin deacetylation): can be inhibited
Cell motility
  cell motility: decreased cell motility
